Among the data in ChEMBL document CHEMBL1122874, “Orally absorbable cephalosporin antibiotics. 1. Structure-activity relationships of benzothienyl- and naphthylglycine derivatives of 7-aminodeacetoxycephalosporanic acid” (1985) are ED50 and MIC values, retold here.

Experiment [1] deals with Streptococcus pneumoniae. As to the kind of experiment: Antibacterial activity in mice infected with Streptococcus pneumoniae Park1 by subcutaneous administration. It counts as functional.
The test system of experiment [2] is Staphylococcus aureus. As to the kind of experiment: Antibacterial activity in mice infected with Staphylococcus aureus 3055. The experiment is classed as functional.
Experiment [3] has as its system Streptococcus pyogenes. Put plainly: Antibacterial activity in mice infected with Streptococcus pyogenes C203 after oral administration. It counts as functional.
The subject of experiment [4] is Streptococcus pyogenes. As to the kind of experiment: Antibacterial activity in mice infected with Streptococcus pyogenes C203 after subcutaneous administration. The experiment is classed as functional.
Experiment [5] concerns Staphylococcus aureus. As to the kind of experiment: Antibacterial activity in mice infected with Staphylococcus aureus 3055 by oral administration. It counts as functional.
Experiment [6] relates to Streptococcus pneumoniae. Put plainly: Antibacterial activity in mice infected with Streptococcus pneumoniae Park1. It counts as functional.
Experiment [7] relates to Streptococcus pyogenes. As to the kind of experiment: Antibacterial activity in mice infected with Streptococcus pyogenes C203. The experiment is classed as functional.
Experiment [8] deals with Streptococcus pneumoniae. As to the kind of experiment: Antibacterial activity in mice infected with Streptococcus pneumoniae Park1 by oral administration. The experiment is classed as functional.
The test system of experiment [9] is Staphylococcus aureus. As to the kind of experiment: Antibacterial activity in mice infected with Staphylococcus aureus 3055 by subcutaneous administration. It counts as functional.
The test system of experiment [10] is Staphylococcus aureus. As to the kind of experiment: Antibacterial activity against penicillin G sensitive Staphylococcus aureus V41. The experiment is classed as functional.
Experiment [11] has as its system Staphylococcus aureus. As to the kind of experiment: Antibacterial activity against methicillin resistant Staphylococcus aureus S13E. The experiment is classed as functional.
Experiment [12] relates to Staphylococcus aureus. As to the kind of experiment: Antibacterial activity against penicillin G sensitive Staphylococcus aureus X1.1. The experiment is classed as functional.
Experiment [13] concerns Streptococcus pyogenes. Put plainly: Antibacterial activity in mice infected with Streptococcus pyogenes C203 by oral administration. It counts as functional.
In experiment [14] the test system is Haemophilus influenzae. As to the kind of experiment: Antibacterial activity against resistant Haemophilus influenzae 76. It counts as functional.
Experiment [15] relates to Staphylococcus aureus. Put plainly: Antibacterial activity against methicillin resistant Staphylococcus aureus X400. The experiment is classed as functional.
For experiment [16], the system named is Streptococcus pyogenes. As to the kind of experiment: Antibacterial activity in mice infected with Streptococcus pyogenes C203 by subcutaneous administration. It counts as functional.
Experiment [17] concerns Haemophilus influenzae. As to the kind of experiment: Antibacterial activity against sensitive Haemophilus influenzae C.L. The experiment is classed as functional.
In a further experiment the test system is Streptococcus. As to the kind of experiment: Antibacterial activity against Streptococcus group D X66. The experiment is classed as functional.
The test system of experiment [18] is Streptococcus pyogenes. As to the kind of experiment: Antibacterial activity against Streptococcus pyogenes C203. It counts as functional.
In experiment [19] the test system is Staphylococcus epidermidis. As to the kind of experiment: Antibacterial activity against Staph. epidermis EP11. It counts as functional.
Experiment [20] deals with Streptococcus pneumoniae. Put plainly: Antibacterial activity against Streptococcus pneumoniae Park.
In experiment [21] the test system is Streptococcus pneumoniae. As to the kind of experiment: Antibacterial activity against Streptococcus pneumoniae Park. The experiment is classed as functional.
Experiment [22] relates to Staphylococcus aureus. As to the kind of experiment: Antibacterial activity in mice infected with Staphylococcus aureus 3055 after oral administration. It counts as functional.
For experiment [23], the system named is Streptococcus pneumoniae. Put plainly: Antibacterial activity in mice infected with Streptococcus pneumoniae Park1 after subcutaneous administration. The experiment is classed as functional.
For experiment [24], the system named is Staphylococcus aureus. Put plainly: Antibacterial activity in mice infected with Staphylococcus aureus 3055 after subcutaneous administration. It counts as functional.
The test system of experiment [25] is Streptococcus pneumoniae. As to the kind of experiment: Antibacterial activity in mice infected with Streptococcus pneumoniae Park1 after oral administration. The experiment is classed as functional.

Structures are written as SMILES. Values after ≈ are worked out from the molar mass of the structure shown.

One may read the ED50 as the dose that gives a 50% effect, or the effect in half of the subjects. Read a high ED50 as weaker potency. For `N[C@@H](C(=O)N[C@@H]1C(=O)N2C(C(=O)O)=C(Cl)CS[C@H]12)c1ccccc1` [CEFACLOR ANHYDROUS], the ED50 in the experiment on Streptococcus pneumoniae [1] came to 11.5 mg/kg; in the experiment on Streptococcus pyogenes [3], 0.8 mg/kg; in the experiment with Streptococcus pyogenes [4], 1.4 mg/kg; with Staphylococcus aureus [5], 0.13 mg/kg; in the experiment with Streptococcus pneumoniae [8], 10.7 mg/kg; with Staphylococcus aureus [9] it was 0.03 mg/kg. For the same compound, the figures for the MIC with Staphylococcus aureus [2], against Streptococcus pneumoniae [6] and in the experiment with Streptococcus pyogenes [7] were 1 µg/mL (≈ 2.72 µM), 2 µg/mL (≈ 5.44 µM) and 0.25 µg/mL (≈ 0.68 µM), respectively.

As to `CC1=C(C(=O)O)N2C(=O)C(NC(=O)[C@H](N)c3ccc4ccccc4c3)C2SC1` (stereo partly drawn), the MIC against Staphylococcus aureus [10] was determined as 8 µg/mL (≈ 20.1 µM); against Staphylococcus aureus [11], 8 µg/mL (≈ 20.1 µM); against Staphylococcus aureus [2], 0.5 µg/mL (≈ 1.26 µM); with Staphylococcus aureus [12] it was 0.5 µg/mL (≈ 1.26 µM); in the experiment with Haemophilus influenzae [14] it was 2 µg/mL (≈ 5.03 µM); against Staphylococcus aureus [15], 64 µg/mL (≈ 161 µM). Further, the MIC against Haemophilus influenzae [17] came to 8 µg/mL (≈ 20.1 µM); against Streptococcus it was 64 µg/mL (≈ 161 µM); with Streptococcus pneumoniae [6] it was 1 µg/mL (≈ 2.52 µM); in the experiment with Streptococcus pyogenes [7], 0.125 µg/mL (≈ 0.315 µM); against Streptococcus pyogenes [18], 0.125 µg/mL (≈ 0.315 µM); in experiment [19], 4 µg/mL (≈ 10.1 µM). This compound also had an MIC with Streptococcus pneumoniae [20] of 0.5 µg/mL (≈ 1.26 µM). The ED50 in the experiment on Streptococcus pneumoniae [1] is 17.6 mg/kg; in the experiment with Streptococcus pyogenes [13] it was 3.4 mg/kg; in the experiment on Streptococcus pyogenes [16], 2 mg/kg; in the experiment with Staphylococcus aureus [5], 0.41 mg/kg; with Streptococcus pneumoniae [8], more than 25 mg/kg; in the experiment on Staphylococcus aureus [9], 0.07 mg/kg.

As to `CC1=C(C(=O)O)N2C(=O)C(NC(=O)[C@H](N)c3csc4cccc(F)c34)C2SC1` (stereo partly drawn), the MIC stood at 4 µg/mL (≈ 9.49 µM) against Streptococcus pneumoniae [21]; 4 µg/mL (≈ 9.49 µM) with Staphylococcus aureus [12]; 4 µg/mL (≈ 9.49 µM) against Haemophilus influenzae [14]; 16 µg/mL (≈ 38 µM) in the experiment with Haemophilus influenzae [17]; 1 µg/mL (≈ 2.37 µM) against Streptococcus pyogenes [18].

On to `CC1=C(C(=O)O)N2C(=O)C(NC(=O)[C@@H](N)c3cc4ccccc4s3)C2SC1` (stereo partly drawn), for which the ED50 with Streptococcus pneumoniae [1] was determined as 15 mg/kg; in the experiment with Streptococcus pyogenes [13], 2.3 mg/kg; in the experiment on Streptococcus pyogenes [16], 2.6 mg/kg; in the experiment on Staphylococcus aureus [5] it was 0.13 mg/kg; in the experiment with Streptococcus pneumoniae [8] it was 31 mg/kg; in the experiment with Staphylococcus aureus [9] it was 0.13 mg/kg. In addition, the MIC against Staphylococcus aureus [2] was 0.25 µg/mL (≈ 0.62 µM); against Staphylococcus aureus [12], 0.5 µg/mL (≈ 1.24 µM); in the experiment with Haemophilus influenzae [14], 1 µg/mL (≈ 2.48 µM); in the experiment on Haemophilus influenzae [17], 32 µg/mL (≈ 79.3 µM); against Streptococcus pneumoniae [6], 1 µg/mL (≈ 2.48 µM); in the experiment with Streptococcus pyogenes [7], 0.25 µg/mL (≈ 0.62 µM). Also, the results for the MIC (against Streptococcus pyogenes [18]; in experiment [19]; against Streptococcus pneumoniae [20]) were 0.5 µg/mL (≈ 1.24 µM), 2 µg/mL (≈ 4.96 µM) and 2 µg/mL (≈ 4.96 µM), respectively.

For `CC1=C(C(=O)O)N2C(=O)C(NC(=O)[C@@H](N)c3csc4ccccc34)C2SC1` (stereo partly drawn), the MIC in the experiment on Staphylococcus aureus [2] is 1 µg/mL (≈ 2.48 µM); with Staphylococcus aureus [12], 1 µg/mL (≈ 2.48 µM); with Haemophilus influenzae [14] it was 0.5 µg/mL (≈ 1.24 µM); against Haemophilus influenzae [17] it was 2 µg/mL (≈ 4.96 µM); in the experiment with Streptococcus, 128 µg/mL (≈ 317 µM); with Streptococcus pneumoniae [6], 1 µg/mL (≈ 2.48 µM). Besides, the MIC with Streptococcus pyogenes [7], in the experiment with Streptococcus pyogenes [18] and against Streptococcus pneumoniae [20] was 0.5 µg/mL (≈ 1.24 µM) throughout. Also, the ED50 came to 0.6 mg/kg with Staphylococcus aureus [22]; 18 mg/kg with Streptococcus pneumoniae [23]; 1.7 mg/kg with Streptococcus pyogenes [3]; 0.4 mg/kg in the experiment with Staphylococcus aureus [24]; 16 mg/kg in the experiment with Streptococcus pneumoniae [25]; 2.3 mg/kg in the experiment on Streptococcus pyogenes [4].
